A word on the IC50: it is the concentration that gives 50% inhibition.

From patent US20210138090A1, “uPAR targeting peptide for use in peroperative optical imaging of invasive cancer” (FLUOGUIDE A/S, priority 2014, published 2021) come the findings set out here.

The target of one data set is uPAR wt (Homo sapiens, UniProt Q03405). In words: SPR inhibition of uPAR binding to immobilized uPA. The protocol:
(§1) Covalent immobilization of purified human prouPA^S356A—was accomplished by injecting 12.5 μg/ml protein dissolved in 10 mM sodium acetate (pH 5.0) over a CM5 chip that had been pre-activated with NHS/EDC (N-ethyl-N′-[3-[…])propyl]-carbodiimide), aiming at a surface density of >5000 resonance units (RU) corresponding to 100 fmols/mm^2. After coupling the sensorchip was deactivated with 1 M ethanolamine. Binding of purified human uPAR as analyte was measured from 4 nM to 0.25 nM at 20° C. using 10 mM HEPES, 150 mM NaCl, 3 mM EDTA (pH 7.4) containing 0.05% (v/v) surfactant P20 as running buffer at a flow rate of 50 μl/min. In between cycles the sensorchip was regenerated by two consecutive 10-μl injections of 0.1 M acetic acid/HCl (pH 2.5) in 0.5 M NaCl. The inhibition of 3-fold dilutions of the compounds in question was measured for 4 nM uPAR with identical running conditions. All experiments were performed on a BiacoreT200 instrument.
(§2) For each inhibition peptide inhibition profile of uPAR binding to immobilized uPA there has been run a preceding standard curve and all calculations are based on the that standard curve.
(§3) Surface plasmon resonance (SPR) was applied to determine the […]-value of IRDye800-AE344 on the uPAR⋅uPA interaction in solution using a Biacore 3000 instrument essentially as described. In brief; pro-uPA^S356A, which is the natural ligand for uPAR. […] The analysis was carried out by measuring vobs of a fixed uPAR concentration (2 nM) incubated with a 3-fold dilution series of IRDye800-AE344 (ranging from 0.076 nM to 1.5 μM) for 300 sec at 20° C. with a flow rate of 50 μL/min. A standard curve was measured in parallel (2-fold dilution of uPAR covering 0.06 nM to 2 nM) including one repeated concentration point at the end to validate the biological integrity of the sensor chip. Running buffer contained 10 mM HEPES, 150 mM NaCl, 3 mM EDTA and 0.05% (v/v) surfactant P20, pH 7.4. The sensor chip was regenerated with two injections of 0.1 M acetic acid, 0.5 M NaCl. The parent nonamer peptide antagonist AE105 (Asp-Cha-Phe-D-Ser-D-Arg-Tyr-Leu-Trp-Ser-OH) was analyzed in parallel as positive control and the closed uPAR^H47C-N259C was used as negative control as its uPA binding cavity cannot accommodate AE105.

Another data set addresses uPAR H47C-N259C (Homo sapiens, UniProt Q03405, H69C/N281C). In words: SPR inhibition of uPAR binding to immobilized uPA, constrained uPAR variant (negative control). The following applies: SPR, constrained uPAR variant, negative control; read-out: IC50 uPAR H47C-N259C. As to the method:
as §1, §2
as §3, with “Running buffer contained 10 mM HEPES, 150 mM NaCl, 3 mM EDTA and 0.05% (v/v) surfactant P20, pH 7.4. The sensor chip was regenerated with two injections of 0.1 M acetic acid, 0.5 M NaCl.” left out

The target in another data set is purified uPAR (Homo sapiens, UniProt Q03405). In words: binding affinity towards purified uPAR (first example).
purified uPAR, sequence (Q03405 23-305): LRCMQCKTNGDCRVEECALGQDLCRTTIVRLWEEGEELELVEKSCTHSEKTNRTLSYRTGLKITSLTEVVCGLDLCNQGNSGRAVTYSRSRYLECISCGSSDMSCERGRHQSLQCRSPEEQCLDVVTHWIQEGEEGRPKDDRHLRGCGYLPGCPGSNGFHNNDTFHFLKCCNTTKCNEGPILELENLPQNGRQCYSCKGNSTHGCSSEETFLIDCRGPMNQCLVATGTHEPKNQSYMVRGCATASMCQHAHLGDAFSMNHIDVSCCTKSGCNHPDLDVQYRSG
Data set [1] relates to U87MG tumours. In words: optical imaging of U87MG tumour-bearing mice, IVIS Lumina XR. The class given is in vivo. The following applies: 10 nmol i.v., 15 hr post injection; for max radiance for the tumors / tumor-to-background (TBR) ratio: IVIS Lumina XR; for tumor-to-background (TBR) ratio: n=10. As to the method:
(§4) All animal experiments were performed under a protocol approved by the Animal Research Committee of the Danish Ministry of Justice. 5*10^6 U87MG cells were suspended in 200 μl PBS and inoculated on both flanks of the mouse. When the tumours reached an appropriate size the mice were imaged with AE105-Glu-Glu-ICG.
The mice were injected with 10 nmol of AE105-Glu-Glu-ICG or ICG i.v., and imaged 15 hr post injection. Before scan the mice were anaesthetized with 2% isofluran and positioned in a prone position. For imaging the IVIS Lumina XR and the acquisition software Living Image were used. The excitation filter was set to 710 nm and the emission filter was set in the ICG position. Acquisition was set to auto-settings to achieve the best acquisition as possible.
(§5) The TBR values were calculated by drawing a ROI over each tumor and place the background ROI in an area with constant background signal.

The test system of data set [2] is U87MG tumours. In words: optical imaging of U87MG tumour-bearing mice, Fluobeam camera. The data set is classed as in vivo. To be noted: 10 nmol i.v. As to the method: as §4
After imaging with IVIS Lumina XR the mouse was moved to a Fluobeam setup and imaged with appropriate acquisition time.
as §5

Data set [3] is described as follows: comparison of fluorescence intensity of ICG and ICG-Glu-Glu-AE105. The class given is physicochemical. To be noted: data not shown.
Data set [4] has as its system orthotopic GBM (U-87 MG-luc2 cells). In words: in vivo binding specificity in orthotopic GBM (blocking with AE120, scrambled probe). To be noted: 3 nmol, 1 h, no blocking. Set-up: species or system mice. As to the method:
The target specificity to uPAR was evaluated by two different methods: competitive blocking with the uPAR targeting peptide AE120 ((DChaFsrYLWSG)2-βAK) and IRDye800 conjugated to a scrambled peptide, AE354 (IRDye800CW-Glu-Glu-NH—CH2—CH2—O—CH2—CH2—O—CH2—CO—NH—CH2—CH2—O—CH2—CH2—O—CH2—CO-Asp-Cha-Glu-(D)Ser-(D)Arg-Tyr-Leu-Glu-Ser-OH) with similar peptide length as the active peptide. The competitive blocking dose of 1.4-2.8 mg AE120 was injected intraperitoneally 15-30 min prior to intravenous injection of 3 nmol IRDye800CW-AE344 and imaged at 1 h (n=5). The scrambled peptide was administered at 3 nmol and the animals were imaged after 1 h (n=4).
Images were analyzed and processed in ImageJ 1.52a, NIH, USA. Signal measurements were performed on the raw images generated by the Fluoptics system. Tumor signal was measured as a mean fluorescence intensity of the whole tumor and background signal was measured as the mean of a representative area with no tumor on the contralateral hemisphere. Presented pictures are contrast enhanced in ImageJ with the Contrast Enhancement (Saturated pixels: 0.3%).

Square brackets hold non-standard residues; d marks the D form. Primed or numbered codes have the meaning given here. Peptide text beside a SMILES is read from it. * marks the point of attachment. ξ: configuration not given here. X1 = CC1(C)C(/C=C/C=C/C=C/C=C2\N(CCCCCC(=O)*)c3ccc4ccccc4c3C2(C)C)=[N+](CCCCS(=O)(=O)[O-])c2ccc3ccccc3c21; Cha = N[C@@H](CC1CCCCC1)C(=O)O; IRDye800CW′ = not defined here; ξR = N=C(N)NCCCC(N)C(=O)O; ξF = NC(Cc1ccccc1)C(=O)O; ξE = NC(CCC(=O)O)C(=O)O; ξD = NC(CC(=O)O)C(=O)O; AEEA = NCCOCCOCC(=O)O; ξS = NC(CO)C(=O)O

uPAR wt, sequence (Q03405 23-305 limits assumed): as the sequence (Q03405 23-305) above
uPAR H47C-N259C, sequence (Q03405 23-305 H69C/N281C limits assumed): as the sequence (Q03405 23-305) above, with H47C, N259C counted along it

As for `CC(C)C[C@H](NC(=O)[C@H](Cc1ccc(O)cc1)NC(=O)[C@@H](CCCNC(=N)N)NC(=O)[C@@H](CO)NC(=O)[C@H](Cc1ccccc1)NC(=O)[C@H](CC1CCCCC1)NC(=O)[C@@H](N)CC(=O)O)C(=O)N[C@@H](Cc1c[nH]c2ccccc12)C(=O)N[C@@H](CO)C(=O)O` [AE105, Asp-Cha-Phe-(D)Ser-(D)Arg-Tyr-Leu-Trp-Ser-OH, reference compound], the results for the IC50 at uPAR wt, on uPAR H47C-N259C and on purified uPAR were 0.0078 ± 0.001 µM, 4.5 ± 1.5 µM and around 0.01 µM, respectively.
As for `CC(C)C[C@H](NC(=O)[C@H](Cc1ccc(O)cc1)NC(=O)[C@@H](CCCNC(=N)N)NC(=O)[C@@H](CO)NC(=O)[C@H](Cc1ccccc1)NC(=O)[C@H](CC1CCCCC1)NC(=O)[C@H](CC(=O)O)NC(=O)COCCOCCNC(=O)COCCOCCNC(=O)[C@H](CCC(=O)O)NC(=O)[C@@H](N)CCC(=O)O)C(=O)N[C@@H](Cc1c[nH]c2ccccc12)C(=O)N[C@@H](CO)C(=O)O` [AE344, Glu Glu O2Oc O2Oc Asp Cha Phe D-Ser D-Arg Tyr Leu Trp Ser-OH] (H-EE[AEEA][AEEA]D[Cha]F[dS][dR]YLWS-OH; N-terminus assumed), the IC50 at uPAR wt turned out to be 0.0057 ± 0.0005 µM.
As to `CC(C)C[C@H](NC(=O)[C@H](Cc1ccc(O)cc1)NC(=O)[C@@H](CCCNC(=N)N)NC(=O)[C@@H](CO)NC(=O)[C@H](Cc1ccccc1)NC(=O)[C@H](CC1CCCCC1)NC(=O)[C@H](CC(=O)O)NC(=O)COCCOCCNC(=O)COCCOCCNC(=O)[C@H](CCC(=O)O)NC(=O)[C@@H](N)CCC(=O)O)C(=O)N[C@@H](Cc1c[nH]c2ccccc12)C(=O)N[C@@H](CO)C(N)=O` [AE345, Glu Glu O2Oc O2Oc Asp Cha Phe D-Ser D-Arg Tyr Leu Trp Ser-NH2] (H-EE[AEEA][AEEA]D[Cha]F[dS][dR]YLWS-NH2; N-terminus assumed), the IC50 at uPAR wt came to 0.0318 ± 0.0015 µM.
Still for that read-out and setting: to `CC(C)C[C@H](NC(=O)[C@H](Cc1ccc(O)cc1)NC(=O)[C@@H](CCCNC(=N)N)NC(=O)[C@@H](CO)NC(=O)[C@H](Cc1ccccc1)NC(=O)[C@H](CC1CCCCC1)NC(=O)[C@H](CC(=O)O)NC(=O)COCCOCCNC(=O)COCCOCCN)C(=O)N[C@@H](Cc1c[nH]c2ccccc12)C(=O)N[C@@H](CO)C(=O)O` [AE346, O2Oc O2Oc Asp Cha Phe D-Ser D-Arg Tyr Leu Trp Ser-OH] (H-[AEEA][AEEA]D[Cha]F[dS][dR]YLWS-OH; N-terminus assumed) belongs 0.0161 ± 0.0009 µM; to `CC(C)C[C@H](NC(=O)[C@H](Cc1ccc(O)cc1)NC(=O)[C@@H](CCCNC(=N)N)NC(=O)[C@@H](CO)NC(=O)[C@H](Cc1ccccc1)NC(=O)[C@H](CC1CCCCC1)NC(=O)[C@H](CC(=O)O)NC(=O)COCCOCCNC(=O)[C@H](CCC(=O)O)NC(=O)[C@@H](N)CCC(=O)O)C(=O)N[C@@H](Cc1c[nH]c2ccccc12)C(=O)N[C@@H](CO)C(N)=O` [AE347, Glu Glu O2Oc Asp Cha Phe D-Ser D-Arg Tyr Leu Trp Ser-NH2] (H-EE[AEEA]D[Cha]F[dS][dR]YLWS-NH2; N-terminus assumed), 0.0035 ± 0.0001 µM; to `CC(C)C[C@H](NC(=O)[C@H](Cc1ccc(O)cc1)NC(=O)[C@@H](CCCNC(=N)N)NC(=O)[C@@H](CO)NC(=O)[C@H](Cc1ccccc1)NC(=O)[C@H](CC1CCCCC1)NC(=O)[C@H](CC(=O)O)NC(=O)COCCOCCNC(=O)[C@@H](N)CCC(=O)O)C(=O)N[C@@H](Cc1c[nH]c2ccccc12)C(=O)N[C@@H](CO)C(N)=O` [AE348, Glu O2Oc Asp Cha Phe D-Ser D-Arg Tyr Leu Trp Ser-NH2] (H-E[AEEA]D[Cha]F[dS][dR]YLWS-NH2; N-terminus assumed), 0.0067 ± 0.0002 µM.
`CC(C)C[C@H](NC(=O)[C@H](Cc1ccc(O)cc1)NC(=O)[C@@H](CCCNC(=N)N)NC(=O)[C@@H](CO)NC(=O)[C@H](Cc1ccccc1)NC(=O)[C@H](CC1CCCCC1)NC(=O)[C@H](CC(=O)O)NC(=O)[C@H](CCC(=O)O)NC(=O)[C@@H](N)CCC(=O)O)C(=O)N[C@@H](Cc1c[nH]c2ccccc12)C(=O)N[C@@H](CO)C(=O)O` [AE349, Glu Glu Asp Cha Phe D-Ser D-Arg Tyr Leu Trp Ser-OH] (H-EED[Cha]F[dS][dR]YLWS-OH; N-terminus assumed) came in with a concentration for half-maximal inhibition (IC50) at uPAR wt of 0.0125 ± 0.0006 µM.
`CC1(C)C(/C=C/C=C/C=C/C=C2\N(CCCCS(=O)(=O)O)c3ccc4ccccc4c3C2(C)C)=[N+](CCCCS(=O)(=O)[O-])c2ccc3ccccc3c21` [ICG, indocyanine green, reference compound]: in the data set on U87MG tumours [1], the “uptake in the tumor” value is listed as “No specific uptake”, the “max radiance for the tumors” value is on record as 7.51E+06±3.13E+05 radiance efficiency and the “tumor-to-background (TBR) ratio” value came out at 1.04±0.04.
In turn, `CC(C)C[C@H](NC(=O)[C@H](Cc1ccc(O)cc1)NC(=O)C(CCCNC(=N)N)NC(=O)C(CO)NC(=O)C(Cc1ccccc1)NC(=O)[C@H](CC1CCCCC1)NC(=O)C(CC(=O)O)NC(=O)C(CCC(=O)O)NC(=O)C(CCC(=O)O)NC(=O)CCCCCN1\C(=C/C=C/C=C/C=C/C2=[N+](CCCCS(=O)(=O)[O-])c3ccc4ccccc4c3C2(C)C)C(C)(C)c2c1ccc1ccccc21)C(=O)N[C@@H](Cc1c[nH]c2ccccc12)C(=O)N[C@@H](CO)C(=O)O` (stereo partly drawn) [ICG-Glu-Glu-AE105] (X1-[ξE][ξE][ξD][Cha][ξF][ξS][ξR]YLWS-OH) had an IC50 at uPAR wt of 0.142 ± 0.013 µM. The TBR in the data set on U87MG tumours [2] is 3.58±0.29. The IC50 on uPAR H47C-N259C was determined as 0.99 ± 0.05 µM. The compound further came in with an IC50 on purified uPAR of around 0.08 µM. Moreover, in the data set with U87MG tumours [1], the “uptake in the tumor” value is reported as “high uptake”, the “max radiance for the tumors” value turned out to be 3.43E+08±0.34E+08 radiance efficiency and the “tumor-to-background (TBR) ratio” value is 3.52±0.167. In addition, the “decrease in fluorescence intensity for the conjugated probe compared with ICG” value in data set [3] stood at 2 fold.
Regarding “IRDye800CW-Glu-Glu-NH—CH2—CH2—O—CH2—CH2—O—CH2—CO—NH—CH2—CH2—O—CH2—CH2—O—CH2—CO-Asp-Cha-Glu-(D)Ser-(D)Arg-Tyr-Leu-Glu-Ser-OH ({IRDye800CW′}-EE[AEEA][AEEA]D[Cha]E[dS][dR]YLES-OH) [IRDye800CW-AE354, reference compound]”, in data set [4], the TBR is listed as 3.4 and the “normalized TBR (ref: active probe)” value is listed as 0.52.
